Entries after “also recorded” stand apart in the source; their conditions may differ.

The test system of series [1] is p3xCPRE/Luc. Description: Activation of p3xCPRE/Luc by small molecular weight organic compounds (Table 6). The settings on record: luciferase activity 16 hours after exposure. Format: cell-based, human. As for the experimental part:
In the in vitro assay system described above, a stable HeLa cell line was generated that contains a stably-integrated copy of the CPRE-Luc gene.
HMECs and HeLa cells were transiently transfected with 1 μg of 3xCPRE-Luc and 0.1 μg of pRL-SV40. One day after transfection, cells were treated with the compounds listed in Table 6 Luciferase activities were determined 16 hours after exposure to the compounds. To generate stable HeLa cell lines that contain a stably-integrated copy of the CPRE-Luc gene, HeLa cells were transfected with p3xCPRE-Luc plus pcDNA-LacZ-Hyg (an expression vector containing the hygromycin drug resistance gene) using SuperFeet transfection reagent. Two days after transfection, cells were cultured in hygromycin (400 μg/ml)-containing selection medium until individual colonies were identified. The colonies were expanded and the presence of CPRE-Luc-containing clones was examined by inducible luciferase activity. […]

Series [2] relates to murine model of allergen-induced peritonitis. Description: Murine model of allergen-induced peritonitis (Type 1 hypersensitivity), eosinophil recruitment. Format: in vivo, mouse. The protocol: To evaluate the anti-inflammatory potential of compound A, a murine model of Type 1 hypersensitivity was used. In this model mice are sensitized to ovalbumin and subsequently challenged with ovalbumin by intraperitoneal injection. This leads to eosinophil recruitment and accumulation in the peritoneal cavity 24-48 hours after the challenge.
6-8 week old Balb/c mice (weighing 20-30 g) were given subcutaneous injections of ovalbumin in alum (0.4 ml of 100 μg ovalbumin and 3.3 mg of Alum Inject) on days 0 and 7. The mice were challenged on day 14 with an intraperitoneal injection of ovalbumin (10 μg in 0.2 ml saline). The mice were sacrificed and peritoneal lavage fluid collected 48 hours after the challenge. The peritoneal fluid was concentrated and slide smears made using a cytospin centrifuge. Slides were stained with Diff-Quik and differential counts obtained by counting 300 cells. Compound A was administered by intravenous injection, in a vehicle composed of 95% Liposyn and 5% Tween 20, 4 or 1 hour prior to challenge. Compound A was compared to dexamethosone administered orally at a dose of 2.5 mg/kg/d.
In a common allergic inflammation, balb/C mice were divided into two groups: control/vehicle and Compound G treated. They were then sensitized to ovalbumin on days 0 and 7 with a subcutaneous injection of ovalbumin absorbed in aluminum hydroxide. The treated group was dosed i.v. 50 mg/kg in liposyn/tween and vehicle one day prior to challenge. The mice were then challenged with an intraperitoneal injection of ovalbumin on day 14 and sacrificed 48 hrs post-challenge. Peritoneal fluid was collected and spun down onto slides. Slides were stained with DiffQuik and a differential performed.

Series [3] concerns p3xCPRE/Luc. Description: p3xCPRE/Luc reporter, transient transfection in HMEC cells. It is filed as cell-based, human. The settings on record: t-BHQ 20 μM. The protocol: (§1) In an effort to determine the utility of the CPRE-Luc reporter construct for the identification of small molecular weight compounds that activate the CPRE, the p3xCPRE/Luc reporter was transiently transfected into both HeLa and endothelial cells (HMECs). […] Similar results were obtained in HeLa cells with both t-BHQ and compound A (FIG. 12b).
(§2) HMECs and HeLa cells were transiently transfected with 1 μg of 3xCPRE-Luc and 0.1 μg of pRL-SV40. One day after transfection, cells were treated with t-BHQ or compound A. Luciferase activities were determined 16 hours after exposure to tBHQ. To generate stable HeLa cell lines that contain a stably-integrated copy of the CPRE-Luc gene, HeLa cells were transfected with p3xCPRE-Luc plus pcDNA-LacZ-Hyg (an expression vector containing the hygromycin drug resistance gene) using SuperFect transfection reagent. Two days after transfection, cells were cultured in hygromycin (400 μg/ml)-containing selection medium until individual colonies were identified. The colonies were expanded and the presence of CPRE-Luc-containing clones was examined by inducible luciferase activity. All experiments are an average of at least three independent determinations for each experimental sample.

Series [4] concerns p3xCPRE/Luc. Put plainly: p3xCPRE/Luc reporter, transient transfection in HeLa cells. Format: cell-based, human. The note with it: t-BHQ 25 μM. The protocol:
HMEC cells (passage 20) and HeLa cells were seeded into 6 well plates and were grown to approximately 60-70% confluency. Cells were transfected with 2 μg (HeLa) or 1 μg (HMEC) each of p3xCPRE/Luc reporter and Nrf-2 expression vector (an expression vector containing the full-length murine Nrf-2 gene under the control of the CMV promoter (Asakura & Karino (1990) Circ Res, 66:1045-1066). Cells were cultured for an additional 48 hours, and luciferase activity was determined (Promega). An average of at least three independent determinations were made for each experimental sample. Results are expressed as ratio of firefly/renilla luciferase.
as §1, §2

Regarding `O=C(/C=C/c1ccccc1)c1ccccc1` [B, 1,3-diphenylpropenone], the “CPRE Activity: concentration to achieve a two-fold induction of CPRE activity over control” value in series [1] stood at 25 µM.
Same read-out and setting: the result for `COc1ccc(/C=C/C(=O)c2cc(C(C)(C)C)c(OC)c(C(C)(C)C)c2)cc1` [Compound C, 1-(3,5-di-tert-butyl-4-methoxyphenyl)-3-(4-methoxyphenyl)-propenone] reads 5 µM.
Take `COc1cc(/C=C/C(=O)c2ccc(OC)c(OC)c2OC)cc(-c2cccs2)c1OC` [Compound G, 3-(3,4-Dimethoxy-5-thiophen-2-ylphenyl)-1-(2,3,4-trimethoxy-phenyl)propenone]: in series [1], the “CPRE Activity: concentration to achieve a two-fold induction of CPRE activity over control” value came out at 3 µM. Further, the “Inhibition of eosinophilia compared with vehicle controls” value in series [2] (Compound G 50 mg/kg i.v., peritoneal fluid 48 hrs post-challenge) is on record as 39%. Also, in series [2] (Compound G 50 mg/kg/d intravenous), the “Eosinophil levels in peritoneal fluid (percent eosinophils)” value is “significantly decreased”.
`COc1ccc(C(=O)/C=C/c2ccc(-c3cccs3)cc2)cc1OC` [Compound I, 1-(3,4-Dimethoxy-phenyl)-3-(4-thiophen-2-ylphenyl)propenone]: the “CPRE Activity: concentration to achieve a two-fold induction of CPRE activity over control” value in series [1] is 8 µM.
Still for that read-out and setting: the result for `COc1c(C(C)(C)C)cc(C(=O)/C=C/c2ccccc2)cc1C(C)(C)C` [D, 1-(3,5-Di-tert-butyl-4-methoxyphenyl)-3-phenyl-propenone] reads 2.5 µM; that for `CCOc1cc(OCC)c(C(=O)/C=C/c2cc(Br)c(OC)c(OC)c2)cc1OCC` [E, 3-(3-Bromo-4,5-dimethoxyphenyl)-1-(2,4,5-triethoxyphenyl)-propenone], 12.5 µM; that for `COc1cc(OC)c(C(=O)/C=C/c2cc(Br)c(OC)c(OC)c2)cc1OC` [F, 1-(3-Bromo-4,5-dimethoxyphenyl)-1-(2,4,5-trimethoxy-phenyl)propenone], 1 µM.
The same measure, in the same setting: next, `COc1ccc(-c2cccs2)cc1/C=C/C(=O)c1cc(OC)c(OC)c(OC)c1` [H, 3-(2-Methoxy-5-thiophen-2-ylphenyl)-1-(3,4,5-trimethoxy-phenyl)propenone]: 2 µM; `COc1cc2c(cc1OC)C(=O)/C(=C/c1cc(Br)c(OC)c(OC)c1)CC2` [J, 2-(3-Bromo-4,5-dimethoxy-benzylidene)-6,7-dimethoxy-3,4-dihydro-2H-naphthalen-1-one.]: 3 µM; `COc1ccc(COc2ccc(C(=O)/C=C/c3cc(OC)c(OC)c(OC)c3)cc2OC)cc1` [K]: 2 µM.
Turning to `COc1ccc(-c2cccs2)cc1/C=C/C(=O)c1ccc(OCc2ccccn2)c(OC)c1` [L, 1-[3-Methoxy-4-(pyridin-2-ylmethoxy)-phenyl]-3-(2-methoxy-5-thiophen-2-yl-phenyl)propenone], the “CPRE Activity: concentration to achieve a two-fold induction of CPRE activity over control” value in series [1] was determined as 0.7 µM.
The same measure, in the same setting: next, `COc1cc(OC)c(-c2cc3ccccc3s2)cc1/C=C/C(=O)c1ccc(OC)c(OC)c1` [M, 3-(5-Benzo[b]thiophene-2-yl-2,4-dimethoxy-phenyl)-1-(3,4-dimethoxyphenyl)-propenone]: 2.5 µM.
The same measure, in the same setting: next, `COc1cc(OC)c(-c2cc3ccccc3s2)cc1/C=C/C(=O)c1cc(OC)c(OCC(=O)[O-])c(OC)c1.[Na+]` [N, Sodium {4-[3-(5-benzo[b]thiophene-2-yl-2,4-dimethoxy-phenyl)acryloyl]-2,6-dimethoxyphenoxy}-acetate]: 1.4 µM; `COc1cc(OC)c(-c2cc3ccccc3s2)cc1/C=C/C(=O)c1cc(OC)c(O)c(OC)c1` [O, 3-(5-Benzo[b]thiophene-2-yl-2,4-dimethoxy-phenyl)-1-(4-hydroxy-3,5-dimethoxyphenyl)-propenone]: 0.7 µM; `COc1cc(OC)c(-c2cc3ccccc3s2)cc1/C=C/C(=O)c1cc(OC)c([O-])c(OC)c1.[Na+]` [P, Sodium 4-[3-(5-benzo[b]thiophene-2-yl-2,4-dimethoxy-phenyl)acryloyl]-2,6-dimethoxyphenolate]: 1 µM.
Same read-out and setting: the result for `COc1cc(/C=C/C(=O)c2ccc(OC)c(OC)c2OC)cc(-c2cc3ccccc3s2)c1OC` [Q, 3-(3-Benzo[b]thiophene-2-yl-4,5-dimethoxy-phenyl)-1-(2,3,4-trimethoxy-phenyl)propenone] reads 2.5 µM; that for `COc1cc(OCC(=O)[O-])c(/C=C/C(=O)c2cc(OC)c(OC)c(OC)c2)cc1-c1cc2ccccc2s1.[Na+]` [R, Sodium {4-benzo[b]thiophene-2-yl-5-methoxy-2-[3-oxo-3-(3,4,5-trimethoxyphenyl)-propenyl]phenoxy}-acetate], 14 µM.
With `CC(C)(C)c1cc(O)ccc1O` [t-BHQ, reference compound], the p3xCPRE/Luc activity result is reported as “induced CPRE-dependent gene expression; also recorded: significantly increased” in series [3] and “significantly increased” in series [4].

Source of the values: patent publication US7247714B2, “Protection against oxidative stress and inflammation by a cytoprotective response element” (Atherogenics, Inc., priority 2001, dated 2007).
